The test system of data set [1] is transgenic plants expressing N-acetyl-L-ornithine deacetylase gene in tapetal cells. The note with it: Kriete et al. 1996; EP 531,716; cited from earlier work.
Data set [2] has as its system transgenic plants expressing bacterial cytochrome P450 gene in tapetal cells. The note with it: WO 91/03561; O'Keefe et al. 1994; cited from earlier work.
The subject of data set [3] is conditional male sterile plants (transformed with pGK73). In words: Acetyl-PPT treatment of conditional male sterile tobacco plants. The format is in vivo. As to conditions: T1 tobacco, pGK73 (TA29-argE), treated during the growing stages; untreated plants remain fully fertile. The text has this: Tobacco leaf discs are also transformed with pGK73, containing an expression cassette of the argE gene under the control of the TA29 promoter (Kriete et al., Plant J. 9:809-818 (1996)) as described in Horsch et al., Science 227:1229-1231 (1985). The presence of the integrated transgenes are confirmed by PCR. Northern analysis of RNA made from anthers is used to confirm tissue-specific expression of the argE gene in the transgenic plants. These plants are self-fertile and have the phenotype of conditional male sterility. Seed of the T1 generation is collected after self-pollination.
Seed of the T1 generation from both conditional female sterile plants (transformed with pFA100) and conditional male sterile plants (transformed with pGK73) are planted in soil. Once plantlets have grown to a sufficient size, leaf tissue is analyzed by PCR for the presence of the argE transgene. PCR positive plants are transferred to the greenhouse. These plants are fully fertile in the absence of exogenously-applied protoxin. A subset of the conditional female sterile plants and a subset of the conditional male sterile plants are treated with the protoxin acetyl-PPT during the growing stages. […] The untreated plants remain fully fertile. Pollen from the treated female sterile plants is collected and used to pollinate the pistils of treated male sterile plants, which are the female parent plants. […]

Data set [4] concerns plants transformed with pMA200 or pSH68 or pZmgarg. Description: Acetyl-PPT treatment of plants conferring conditional male sterility. In kind it is in vivo. The note with it: T1 plants with pMA200 or pSH68 or pZmgarg, treated during the growing stages; untreated plants fully fertile. As to the method:
(§1) Seed from the T1 generation from plants transformed with pFA200 or pSH74 or p19arg (conferring conditional female sterility) and plants transformed with pMA200 or pSH68 or pZmgarg (conferring conditional male sterility) are planted in soil. Once plantlets have grown to a sufficient size, leaf tissue is analyzed by PCR for the presence of the argE transgene. PCR positive plants are transferred to the greenhouse. These plants are fully fertile. A subset of the plants containing pFA200 or pSH74 or p19arg and a subset containing pMA200 or pSH68 or pZmarg are treated with the protoxin acetyl-PPT during the growing stages. […] The untreated plants transformed with pFA200 or pSH74 or p19arg and pMA200 or pSH68 or pZmgarg are fully fertile.

For data set [5], the system named is plants transformed with pFA200 or pSH74 or p19arg. Description: Acetyl-PPT treatment of plants conferring conditional female sterility. The format is in vivo. The note with it: T1 plants with pFA200 or pSH74 or p19arg, treated during the growing stages; untreated plants fully fertile. The procedure: as §1
The test system of data set [6] is conditional female sterile plants (transformed with pFA100). In words: Acetyl-PPT treatment of conditional female sterile tobacco plants. In kind it is in vivo. As to conditions: T1 tobacco, pFA100 (Stig1-argE), treated during the growing stages; untreated plants remain fully fertile. The text has this:
Plasmid pFA100 is constructed in a manner similar to pSH58, above, except that the argE gene (SEQ ID NO:3) replaces the GUS gene in Stig1-GUS (Goldman et al., EMBO J. 13:2976-2984 (1994)) in the correct translational reading frame using appropriate restriction enzymes. The STIG1-argE fusion is then ligated into a vector such as pCIB200 containing T-DNA borders, 3′ termination sequences and a functional plant selectable marker such as kanamycin resistance. The Stig1 promoter is a female-preferential promoter.
Tobacco leaf discs are transformed as described in Horsch et al., Science 227:1229-1231 (1985) with pSH58. The presence of the integrated transgenes is confirmed by PCR. Northern analysis of RNA made from female tissue is used to confirm tissue-specific expression of the argE gene in the transgenic plants. These plants are self-fertile and have the phenotype of conditional female sterility. T1 seed is collected after self-pollination. The female conditional transgene in pFA100 is also introduced into tobacco using similar procedures.
Seed of the T1 generation from both conditional female sterile plants (transformed with pFA100) and conditional male sterile plants (transformed with pGK73) are planted in soil. Once plantlets have grown to a sufficient size, leaf tissue is analyzed by PCR for the presence of the argE transgene. PCR positive plants are transferred to the greenhouse. […]

The subject of data set [7] is transgenic plants expressing phosphonate monoester hydrolase gene in tapetal cells. The note with it: Dotson et al. 1996; cited from earlier work.

The source of these data is patent publication US6815577B1, “Method of hybrid seed production using conditional female sterility” (Syngenta Participations AG, priority 1997, dated 2004).

Turning to `CC(=O)N[C@@H](CCP(C)(=O)O)C(=O)O` [N-acetyl-L-phosphinothricin], the “male fertility after protoxin treatment” value in data set [1] is on record as “rendered male sterile”. In the case of `COc1cc(OC)nc(NC(=O)NS(=O)(=O)c2cccc3c2S(=O)(=O)N(C(C)C)C3)n1` [R7402, 2-methylethyl-2,2-dihydro-N-[(4,6-dimethoxypyrimidin-2-yl)aminocarbonyl]-1,2-benzoiaothiazole-7-sulfonamide-1,1-dioxide], in data set [2], the “male fertility after protoxin treatment” value is recorded as “rendered male sterile”.

Turning to `CC(=O)NC(CCP(C)(=O)O)C(=O)O` (stereo not shown) [acetyl-PPT, N-acetyl phosphinothricin], the “fertility of treated conditional male sterile plants” value in data set [3] is listed as “become male sterile”. In addition, the “fertility of treated plants (male reproductive structures)” value in data set [4] is “are male sterile”. For the same compound, the “fertility of treated plants (female reproductive structures)” value in data set [5] is given as “are female sterile”. For the same compound, the “fertility of treated conditional female sterile plants” value in data set [6] is on record as “become female sterile”. With `O=C(O)CNCP(=O)(O)OCC(O)CO` (stereo not shown) [glycerol glyphosate, glyceryl glyphosate], the “male fertility after protoxin treatment” value in data set [7] was “rendered male sterile”.
